Experimental data as given in patent publication US6677368B2, “4-aryl substituted indolinones” (Sugen, Inc., priority 2000, dated 2004).

Experiments:
Type in all cases: biochemical
MET = target: T1, MET (Homo sapiens, UniProt P08581); test: MET transphosphorylation assay; conditions: GST fusion protein containing the Met kinase domain, poly(glu-tyr) substrate
T1 construct: Purified GST fusion protein containing the Met kinase domain, SUGEN, Inc
Description: MET TRANSPHOSPHORYLATION ASSAY
This assay is used to measure phosphotyrosine levels on a poly(glutamic acid:tyrosine, 4:1) substrate as a means for identifying agonists/antagonists of met transphosphorylation of the substrate.
1. Corning 96-well ELISA plates, Corning Catalog #25805-96.
2. Poly(glu-tyr), 4:1, Sigma, Cat. No; P 0275.
5. Blocking Buffer: Dissolve 25 g Bovine Serum Albumin, Sigma Cat. No A-7888, in 500 ml PBS, filter through a […] filter.
6. Purified GST fusion protein containing the Met kinase domain, SUGEN, Inc.
8. 10% aqueous (MilliQue H2O) DMSO.
9. 10 mM aqueous (dH2O) Adenosine-5′-triphosphate, Sigma Cat. No. A-5394.
10. 2×Kinase Dilution Buffer: for 100 ml, mix 10 mL 1M HEPES at pH 7.5 with 0.4 mL 5% BSA/PBS, 0.2 mL 0.1 M sodium orthovanadate and 1 mL 5M sodium chloride in 88.4 mL dH2O.
11. 4×ATP Reaction Mixture: for 10 mL, mix 0.4 mL 1 M manganese chloride and 0.02 mL 0.1 M ATP in 9.56 mL dH2O.
12. 4×Negative Controls Mixture: for 10 mL, mix 0.4 mL 1 M manganese chloride in 9.6 mL dH2O.
13. NUNC 96-well V bottom polypropylene plates, Applied Scientific Catalog #S-72092
15. Antibody Dilution Buffer: for 100 mL, mix 10 mL 5% BSA/PBS, 0.5 mL 5% Carnation® Instant Milk in PBS and 0.1 mL 0.1 M sodium orthovanadate in 88.4 mL TBST.
16. Rabbit polyclonal antophosphotyrosine antibody, SUGEN, Inc.
17. Goat anti-rabbit horseradish peroxidase conjugated antibody, Biosource, Inc.
18. ABTS Solution: for 1 L, mix 19.21 g citric acid, 35.49 g Na2HPO4 and 500 mg ABTS with sufficient dH2O to make 1 L.
19. ABTS/H2O2: mix 15 mL ABST solution with 2μL H2O2 five minutes before use.
1. Coat ELISA plates with 2 μg Poly(Glu-Tyr) in 100 μL PBS, hold overnight at 4° C.
2. Block plate with 150 μL of 5% BSA/PBS for 60 min.
3. Wash plate twice with PBS then once with 50 mM Hepes buffer pH 7.4.
4. Add 50 μl of the diluted kinase to all wells. (Purified kinase is diluted with Kinase Dilution Buffer. Final concentration should be 10 ng/well.)
5. Add 25 μL of the test compound (in 4% DMSO) or DMSO alone (4% in dH2O) for controls to plate.
6. Incubate the kinase/compound mixture for 15 minutes.
7. Add 25 μL of 40 mM MnCl2 to the negative control wells.
8. Add 25 μL ATP/MnCl2 mixture to the all other wells (except the negative controls). Incubate for 5 min.
9. Add 25 μL 500 mM EDTA to stop reaction.
10. Wash plate 3× with TBST.
11. Add 100 μL rabbit polyclonal anti-Ptyr diluted 1:10,000 in Antibody Dilution Buffer to each well. Incubate, with shaking, at room temperature for one hour.
12. Wash plate 3× with TBST.
13. Dilute Biosource HRP conjugated anti-rabbit antibody 1:6,000 in Antibody Dilution buffer. Add 100 μL per well and incubate at room temperature, with shaking, for one hour.
14. Wash plate 1× with PBS.
15. Add 100 μl of ABTS/H2O2 solution to each well.
16. If necessary, stop the development reaction with the addition of 100 μl of 0.2M HCl per well.
17. Read plate on Dynatech MR7000 ELISA reader with the test filter at 410 nM and the reference filter at 630 nM.

SRC = target: T2, SRC (Homo sapiens, UniProt P12931); test: Src transphosphorylation assay; conditions: recombinant human Src, poly(Glu-Tyr) substrate
T2 construct: purchased UBI 14-117
T2 sequence (P12931 whole entry): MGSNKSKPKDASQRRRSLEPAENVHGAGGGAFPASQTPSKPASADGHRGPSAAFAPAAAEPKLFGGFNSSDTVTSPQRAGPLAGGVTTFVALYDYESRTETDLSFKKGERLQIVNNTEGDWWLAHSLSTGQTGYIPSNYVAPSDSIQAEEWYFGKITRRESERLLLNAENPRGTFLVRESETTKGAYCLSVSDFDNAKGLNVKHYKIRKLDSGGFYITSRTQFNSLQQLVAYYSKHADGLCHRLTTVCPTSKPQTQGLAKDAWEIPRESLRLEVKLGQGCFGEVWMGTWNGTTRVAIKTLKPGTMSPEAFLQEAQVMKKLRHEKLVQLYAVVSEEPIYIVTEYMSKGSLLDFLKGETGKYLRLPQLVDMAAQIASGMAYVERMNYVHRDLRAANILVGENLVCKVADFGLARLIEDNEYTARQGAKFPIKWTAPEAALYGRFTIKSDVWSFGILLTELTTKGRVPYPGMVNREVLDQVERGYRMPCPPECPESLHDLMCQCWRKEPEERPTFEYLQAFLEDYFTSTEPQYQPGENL
Description: Src Transphosphorylation Assay
This assay is used to screen for inhibitors of the tyrosine kinase Src.
1. Coating buffer: PBS containing sodium azide (0.2 mg/ml).
3. Wash buffer: PBS containing 0.05% v/v Tween 20 (PBS-TWEEN)
5. ATP (40 [M)+MgCl2 (80 mM) in distilled water.
6. MgCl2 (80 mM) in distilled water (for no ATP blanks).
7. Test compounds, 10 mM in DMSO.
8. Assay Buffer: 100 mM HEPES, pH 7.4, containing 2 mM DTT, 0.2 mM sodium orthovanadate and 0.2 mgs/ml BSA.
9. Partially purified recombinant human Src (UBI (14-117)
10. Anti-phosphotyrosine (SUGEN rabbit polyclonal anti-PY).
11. HRP-linked goat anti-rabbit Ig (Biosource International #6430)
12. HRP substrate ABTS or Pierce Peroxidase substrate.
13. Corning ELISA plates.
1. Coat plates with 100 μl of 20 μg/ml poly(Glu-Tyr) (Sigma Cat. No.P0275) containing 0.01% sodium azide. Hold overnight at 4° C.
2. Block with 1% BSA at 100 μl/well for one hour at room temperature.
3. Plate test compounds (10 mM in DMSO) at 2 ul/well on a Costar plate ready for dilution with dH2O and plating to reaction plates.
4. Dilute Src kinase 1:10,000 in Reaction Buffer, for 5 plates prepare 25 ml as follows: 2.5 mls 1M HEPES pH7.4 (stored sterile at 4° C.), 21.85 ml distilled water, 0.1 ml 5% BSA, 0.5 ml 10 mM sodium orthovanadate (stored sterile at 4° C.), 50 μl 1.0M DTT (stored frozen at […]), and 2.5 μl Src Kinase (stored frozen at −80° C.).
5. Add 48 μl of distilled water to the 2 ∥l of each compound in the dilution plate then add 25 μl/well of this to the reaction plate.
6. Add 50 μl of […] to each reaction buffer well and then 25 μl ATP-MgCl2/well (MgCl2 only to no ATP blanks). Incubate at room temperature for 15 minutes on plate shaker. Stop reaction by adding 25 μl of 0.5M EDTA to each well.
7. Wash 4× with PBS-TWEEN.
8. […] Incubate with continuous shaking at room temperature for one hour.
9. Wash plates 4× with PBS-TWEEN.
10. Add 100 μl HPP-linked Ig (1:5,000) in PBS-TWEEN containing 0.5% BSA, 0.025% Non-fat milk powder, 100 μM sodium orthovanadate. Incubate with shaking at room temperature for one hour.
11. Wash plates 4× with PBS-TWEEN and then once with PBS.
12. Develop plate using ABTS or other peroxidase substrate.

P38 = P38 (Homo sapiens, UniProt Q16539); test: P38 kinase inhibition
Chain of P38 (Q16539 whole entry): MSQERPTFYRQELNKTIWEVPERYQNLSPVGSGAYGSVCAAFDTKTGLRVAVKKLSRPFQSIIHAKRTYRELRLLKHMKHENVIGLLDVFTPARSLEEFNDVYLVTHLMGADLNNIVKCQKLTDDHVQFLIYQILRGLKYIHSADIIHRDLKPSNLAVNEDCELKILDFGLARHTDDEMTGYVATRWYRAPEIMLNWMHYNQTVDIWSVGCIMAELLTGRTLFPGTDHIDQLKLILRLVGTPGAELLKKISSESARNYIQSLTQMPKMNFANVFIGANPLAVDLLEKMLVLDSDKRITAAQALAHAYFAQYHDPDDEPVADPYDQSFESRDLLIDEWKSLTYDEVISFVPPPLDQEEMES

T1 sequence (P08581 1078-1345 limits assumed): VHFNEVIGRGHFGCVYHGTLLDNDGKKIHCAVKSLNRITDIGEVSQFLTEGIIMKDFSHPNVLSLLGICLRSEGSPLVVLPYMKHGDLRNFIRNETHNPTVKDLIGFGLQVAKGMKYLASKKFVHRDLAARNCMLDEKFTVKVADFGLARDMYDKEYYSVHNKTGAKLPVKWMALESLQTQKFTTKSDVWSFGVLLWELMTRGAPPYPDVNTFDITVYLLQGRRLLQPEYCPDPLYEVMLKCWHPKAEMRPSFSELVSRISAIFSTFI

| SMILES | IC50 (MET) [µM] | IC50 (SRC) [µM] | IC50 (P38) [µM] |
| --- | --- | --- | --- |
| Cc1cc(C(=O)NCCn2ccnn2)c(/C=C2\C(=O)Nc3cccc(-c4cccc(Cl)c4)c32)[nH]1 [Example 34, 2-[4-(3-Chloro-phenyl)-2-oxo-1,2-dihydro-indol-3-ylidenemethyl]-5-methyl-1H-pyrrole-3-carboxylic Acid (2-[1,2,3]Triazol-1-yl-ethyl)-amide] | 0.13 | 7.26 | > 10 |
| Cc1[nH]c(/C=C2\C(=O)Nc3cccc(-c4ccc(F)cc4)c32)c(C)c1C(=O)N1CCN(C)CC1 [Example 4, 3-[3,5-Dimethyl-4-(4-methyl-piperazine-1-carbonyl)-1H-pyrrol-2-ylmethylene]-4-(4-fluoro-phenyl)-1,3-dihydro-indol-2-one] | 0.7 | > 20 | > 10 |
| Cc1[nH]c(/C=C2\C(=O)Nc3cccc(-c4ccc(Br)cc4)c32)c(C)c1C(=O)NCCN(C(C)C)C(C)C [Example 60, 5-[4-(4-Bromo-phenyl)-2-oxo-1,2-dihydro-indol-3-ylidenemethyl]-2,4-dimethyl-1H-pyrrole-3-carboxylic Acid (2-Diisopropylamino-ethyl)-amide] | 0.25 | 2.01 | 7.9 |
| COc1cccc(-c2cccc3c2/C(=C/c2[nH]c(C)c(C(=O)NCCN(C(C)C)C(C)C)c2C)C(=O)N3)c1 [Example 52, 5-[4-(3-Methoxy-phenyl)-2-oxo-1,2-dihydro-indol-3-ylidenemethyl]-2,4-dimethyl-1H-pyrrole-3-carboxylic Acid (2-Diisopropylamino-ethyl)-amide] | 0.092 | 0.54 | > 10 |
| Cc1[nH]c(/C=C2\C(=O)Nc3cccc(-c4ccc(Br)cc4)c32)c(C)c1C(=O)N1CCN(C)CC1 [Example 53] | 0.29 | 13.5 | > 10 |
| COc1ccc(-c2cccc3c2/C(=C/c2[nH]c(C)c(C(=O)NCCN4CCCC4)c2C)C(=O)N3)cc1 [Example 38, 5-[4-(4-Methoxy-phenyl)-2-oxo-1,2-dihydro-indol-3-ylidenemethyl]-2,4-dimethyl-1H-pyrrole-3-carboxylic Acid (2-Pyrrolidin-1-yl-ethyl)-amide] | 0.11 | 1.25 | > 10 |
| Cc1[nH]c(/C=C2\C(=O)Nc3cccc(-c4ccccc4F)c32)c(C)c1C(=O)N1CCN(C)CC1 [Example 93, 3-[3,5-Dimethyl-4-(4-methyl-piperazine-1-carbonyl)-1H-pyrrol-2-ylmethylene]-4-(2-fluoro-phenyl)-1,3-dihydro-indol-2-one] | 0.08 | > 20 |  |
| CCN(CC)CCNC(=O)c1c[nH]c(/C=C2\C(=O)Nc3cccc(-c4ccc(Br)cc4)c32)c1C [Example 61, 5-[4-(4-Bromo-phenyl)-2-oxo-1,2-dihydro-indol-3-ylidenemethyl]-4-methyl-1H-pyrrole-3-carboxylic Acid (2-Diethylamino-ethyl)-amide] | 0.11 | 1.72 | 6.3 |
| COc1ccc(-c2cccc3c2/C(=C/c2[nH]c(C)cc2C(=O)NCCN2CCCC2)C(=O)N3)cc1 [Example 41, 2-[4-(4-Methoxy-phenyl)-2-oxo-1,2-dihydro-indol-3-ylidenemethyl]-5-methyl-1H-pyrrole-3-carboxylic Acid (2-Pyrrolidin-1-yl-ethyl)-amide] | 0.32 | 5.42 | > 10 |
| Cc1cc(C(=O)NCCN2CCCC2)c(/C=C2\C(=O)Nc3cccc(-c4ccc(F)c(Cl)c4)c32)[nH]1 [Example 119, 2-[4-(3-Chloro-4-fluoro-phenyl)-2-oxo-1,2-dihydro-indol-3-ylidenemethyl]-5-methyl-1H-pyrrole-3-carboxylic Acid (2-Pyrrolidin-1-yl-ethyl)-amide] | 0.059 | 8.61 |  |
| Cc1[nH]c(/C=C2\C(=O)Nc3cccc(-c4cccc(C(F)(F)F)c4)c32)c(C)c1C(=O)N1CCN(C)CC1 [Example 104, 3-[3,5-Dimethyl-4-(4-methyl-piperazine-1-carbonyl)-H-pyrrol-2-ylmethylene]-4-(3-trifluoromethyl-phenyl)-1,3-dihydro-indol-2-one] | 0.58 | 7.09 |  |
| CCN(CC)CCNC(=O)c1c(C)[nH]c(/C=C2\C(=O)Nc3cccc(-c4cccc(Br)c4)c32)c1C [Example 63, 5-[4-(3-Bromo-phenyl)-2-oxo-1,2-dihydro-indol-3-ylidenemethyl]-2,4-dimethyl-1H-pyrrole-3-carboxylic Acid (2-Diethylamino-ethyl)-amide] | 0.043 | 1.14 |  |
| Cc1cc(C(=O)NCCn2ccnn2)c(/C=C2\C(=O)Nc3cccc(-c4ccccc4F)c32)[nH]1 [Example 99, 2-[4-(2-Fluoro-phenyl)-2-oxo-1,2-dihydro-indol-3-ylidenemethyl]-5-methyl-1H-pyrrole-3-carboxylic Acid (2-[1,2,3]Triazol-1-yl-ethyl)-amide] | 0.18 | > 20 |  |
| CCN(CC)CCNC(=O)c1c(C)[nH]c(/C=C2\C(=O)Nc3cccc(-c4ccc(OC(F)(F)F)cc4)c32)c1C [Example 140, 2,4-Dimethyl-5-[2-oxo-4-(4-trifluoromethoxy-phenyl)-1,2-dihydro-indol-3-ylidenemethyl]-1H-pyrrole-3-carboxylic Acid (2-Diethylamino-ethyl)-amide] | 0.68 | 4.31 |  |
